According to patent publication US8747846B2, “Compositions and methods for immunization against drug resistant Acinetobacter baumannii” (priority 2011, dated 2014):
≈ marks a conversion by molar mass, not a printed value. Read-outs that look alike come from different tables or passages of the source.

Key:
Format in all cases: cell-based, Acinetobacter baumannii
A. baumannii ATCC 17978 = test: Antibacterial minimum inhibitory concentrations for clinical isolates; details: strain ATCC 17978; for MIC: Acinetobacter baumannii, ATCC17978
A. baumannii HUMC1 = test: microbe, parasite or virus in culture; details: for MIC: Acinetobacter baumannii
A. baumannii HUMC4 = test: microbe, parasite or virus in culture; details: for MIC: Acinetobacter baumannii
A. baumannii HUMC5 = test: microbe, parasite or virus in culture; details: for MIC: Acinetobacter baumannii
A. baumannii HUMC6 = test: microbe, parasite or virus in culture; details: for MIC: Acinetobacter baumannii
A. baumannii HUMC12 = test: microbe, parasite or virus in culture; details: for MIC: Acinetobacter baumannii
[1] = HUMC1, read-out: Antibacterial Minimum Inhibitory Concentrations
[2] = strain HUMC4, read-out: Antibacterial Minimum Inhibitory Concentrations
[3] = strain HUMC5, read-out: Antibacterial Minimum Inhibitory Concentrations
[4] = strain HUMC6, read-out: Antibacterial Minimum Inhibitory Concentrations
[5] = strain HUMC12, read-out: Antibacterial Minimum Inhibitory Concentrations
[6] = strain HUMC1, read-out: Antibacterial Minimum Inhibitory Concentrations

| Compound | MIC (A. baumannii ATCC 17978) | MIC (A. baumannii HUMC1; [1]) | MIC (A. baumannii HUMC4; [2]) | MIC (A. baumannii HUMC5; [3]) | MIC (A. baumannii HUMC6; [4]) | MIC (A. baumannii HUMC12; [5]) | MIC (A. baumannii HUMC1; [6]) | Antibacterial Minimum Inhibitory Concentrations (A. baumannii HUMC1; strain HUMC1) | Antibacterial Minimum Inhibitory Concentrations (A. baumannii HUMC4; strain HUMC4) | Antibacterial Minimum Inhibitory Concentrations (A. baumannii HUMC5; strain HUMC5) | Antibacterial Minimum Inhibitory Concentrations (A. baumannii HUMC6; strain HUMC6) | Antibacterial Minimum Inhibitory Concentrations (A. baumannii HUMC12; strain HUMC12) | other results |
| --- | --- | --- | --- | --- | --- | --- | --- | --- | --- | --- | --- | --- | --- |
| NCC[C@H](O)C(=O)N[C@@H]1C[C@H](N)[C@@H](O[C@H]2O[C@H](CN)[C@@H](O)[C@H](O)[C@H]2O)[C@H](O)[C@H]1O[C@H]1O[C@H](CO)[C@@H](O)[C@H](N)[C@H]1O [Amikacin] | 8 µg/mL (≈ 13.7 µM) | > 128 µg/mL | > 128 µg/mL | > 128 µg/mL | > 128 µg/mL | > 128 µg/mL | – | – | – | – | – | – | – |
| C[C@@H](O)[C@H]1C(=O)N2C(C(=O)O)=C(S[C@@H]3CN[C@H](CNS(N)(=O)=O)C3)[C@H](C)[C@H]12 [Doripenem] | 0.5 µg/mL (≈ 1.19 µM) | – | 4 µg/mL (≈ 9.51 µM) | 8 µg/mL (≈ 19 µM) | 4 µg/mL (≈ 9.51 µM) | 8 µg/mL (≈ 19 µM) | 16 µg/mL (≈ 38 µM) | – | – | – | – | – | – |
| C[C@@H](O)[C@H]1C(=O)N2C(C(=O)O)=C(S[C@@H]3CN[C@H](C(=O)Nc4cccc(C(=O)O)c4)C3)[C@H](C)[C@H]12 [Ertapenem] | 4 µg/mL (≈ 8.41 µM) | – | 32 µg/mL (≈ 67.3 µM) | 32 µg/mL (≈ 67.3 µM) | 32 µg/mL (≈ 67.3 µM) | 16 µg/mL (≈ 33.6 µM) | 128 µg/mL (≈ 269 µM) | – | – | – | – | – | – |
| C[C@@H](O)[C@H]1C(=O)N2C(C(=O)O)=C(SCCN=CN)C[C@H]12 [Imipenem] | 0.25 µg/mL (≈ 0.835 µM) | – | 4 µg/mL (≈ 13.4 µM) | 4 µg/mL (≈ 13.4 µM) | 4 µg/mL (≈ 13.4 µM) | 2 µg/mL (≈ 6.68 µM) | 16 µg/mL (≈ 53.4 µM) | – | – | – | – | – | – |
| C[C@@H](O)[C@H]1C(=O)N2C(C(=O)O)=C(S[C@@H]3CN[C@H](C(=O)N(C)C)C3)[C@H](C)[C@H]12 [Meropenem] | 0.25 µg/mL (≈ 0.652 µM) | 32 µg/mL (≈ 83.4 µM) | 8 µg/mL (≈ 20.9 µM) | 8 µg/mL (≈ 20.9 µM) | 8 µg/mL (≈ 20.9 µM) | 4 µg/mL (≈ 10.4 µM) | – | – | – | – | – | – | – |
| CN(C)c1cc(NC(=O)CNC(C)(C)C)c(O)c2c1C[C@H]1C[C@H]3[C@H](N(C)C)C(O)=C(C(N)=O)C(=O)[C@@]3(O)C(O)=C1C2=O [Tigecycline] | 0.25 µg/mL (≈ 0.427 µM) | 4 µg/mL (≈ 6.83 µM) | – | – | – | – | – | – | – | – | – | – | MIC (A. baumannii HUMC4; HUMC4, read-out: Antibacterial Minimum Inhibitory Concentrations): 4 µg/mL (≈ 6.83 µM); MIC (A. baumannii HUMC5; HUMC5, read-out: Antibacterial Minimum Inhibitory Concentrations): 4 µg/mL (≈ 6.83 µM); MIC (A. baumannii HUMC6; HUMC6, read-out: Antibacterial Minimum Inhibitory Concentrations): 4 µg/mL (≈ 6.83 µM); MIC (A. baumannii HUMC12; HUMC12, read-out: Antibacterial Minimum Inhibitory Concentrations): 4 µg/mL (≈ 6.83 µM) |
| Ampicillin/sulbactam | – | – | – | – | – | – | – | 16/8 | 32/16 | 32/16 | 32/16 | 32/16 | – |
| Colistin | – | – | – | – | – | – | – | 2 µg/mL | 2 µg/mL | 2 µg/mL | 2 µg/mL | 2 µg/mL | Antibacterial Minimum Inhibitory Concentrations (A. baumannii ATCC 17978): 2 µg/mL |
| Gentamicin | – | – | – | – | – | – | – | >128 µg/mL | >128 µg/mL | >128 µg/mL | >128 µg/mL | >128 µg/mL | Antibacterial Minimum Inhibitory Concentrations (A. baumannii ATCC 17978): 8 µg/mL |
| Pipercillin/tazobactam | – | – | – | – | – | – | – | <128/4 | <128/4 | <128/4 | <128/4 | <128/4 | – |
